Our source for the melting point values is patent US20050182252A1, “Novel 2'-C-methyl nucleoside derivatives” (priority 2004, published 2005).

The compound `C[C@@]1(O)[C@H](O)[C@@H](COP2(=O)OCC[C@@H](c3ccccc3Cl)O2)O[C@H]1n1ccc2c(N)ncnc21` (stereo partly drawn) [Compound 16.14, 4-amino-7-(cis-5′-O-[4-(2-chlorophenyl)-2-oxo-1,3,2-dioxaphosphorinan-2-yl]-2′-C-methyl-beta-D-ribofuranosyl)-7H-pyrrolo[2,3-d]pyrimidine] came in with a melting point of 187 to 190 °C. Under `C[C@@]1(O)[C@H](O)[C@@H](COP2(=O)OC[C@@H](c3ccccc3)[C@@H](c3ccccc3)O2)O[C@H]1n1ccc2c(N)ncnc21` (stereo partly drawn) [Compound 16.22, 4-amino-7-(trans-5′-O-[4,5-cis-diphenyl-2-oxo-1,3,2-dioxaphosphorinan-2-yl]-2′-C-methyl-beta-D-ribofuranosyl)-7H-pyrrolo[2,3-d]pyrimidine] stands 160 to 163 °C; under `C[C@@]1(O)[C@H](O)[C@@H](COP2(=O)OCC[C@@H](c3cc(Cl)ccc3Br)O2)O[C@H]1n1ccc2c(N)ncnc21` (stereo partly drawn) [Compound 16.25, 4-amino-7-(cis-5′-O-[4-(2-bromo-5-chlorophenyl)-2-oxo-1,3,2-dioxaphosphorinan-2-yl]-2′-C-methyl-beta-D-ribofuranosyl)-7H-pyrrolo[2,3-d]pyrimidine], 193 to 196 °C.

As to `C[C@@]1(O)[C@H](O)[C@@H](COP2(=O)OCC[C@H](c3cc(Cl)cc(Cl)c3)O2)O[C@H]1n1ccc2c(N)ncnc21` (stereo partly drawn) [Compound 16.26, 4-amino-7-(cis-5′-O-[4-(3,5-dichlorophenyl)-2-oxo-1,3,2-dioxaphosphorinan-2-yl]-2′-C-methyl-beta-D-ribofuranosyl)-7H-pyrrolo[2,3-d]pyrimidine], the melting point was in the range of 182 to 185 °C. `C[C@@]1(O)[C@H](O)[C@@H](COP2(=O)OCC[C@H](c3cc(F)cc(F)c3)O2)O[C@H]1n1ccc2c(N)ncnc21` (stereo partly drawn) [Compound 16.27, 4-amino-7-(cis-5′-O-[-4-(3,5-difluorophenyl)-2-oxo-1,3,2-dioxaphosphorinan-2-yl]-2′-C-methyl-beta-D-ribofuranosyl)-7H-pyrrolo[2,3-d]pyrimidine] had a melting point of 135 to 140 °C. Consider `C[C@@]1(O)[C@H](O)[C@@H](CO[P@]2(=O)OCC[C@H](c3cccc(Cl)c3)O2)O[C@H]1n1ccc2c(N)ncnc21` [Compound 16.28, 4-amino-7-(cis-5′-O-[4-(R)-(3-chlorophenyl)-2-oxo-1,3,2-dioxaphosphorinan-2-yl]-2′-C-methyl-beta-D-ribofuranosyl)-7H-pyrrolo[2,3-d]pyrimidine], for which the melting point is 126 to 128 °C. For `C[C@@]1(O)[C@H](O)[C@@H](COP2(=O)OCC[C@H](c3ccccc3C(F)(F)F)O2)O[C@H]1n1ccc2c(N)ncnc21` (stereo partly drawn) [Compound 16.29, 4-amino-7-(cis-5′-O-[4-(2-trifluoromethylphenyl)-2-oxo-4,3,2-dioxaphosphorinan-2-yl]-2′-C-methyl-beta-D-ribofuranosyl)-7H-pyrrolo[2,3-d]pyrimidine], the melting point lay in the range of 115 to 120 °C. In turn, `C[C@@]1(O)[C@H](O)[C@@H](CO[P@]2(=O)OCC[C@H](c3ccncc3)O2)O[C@H]1n1ccc2c(N)ncnc21` [Compound 16.30, 4-amino-7-(cis-5′-O-[4-(R)-(pyridin-4-yl)-2-oxo-1,3,2-dioxaphosphorinan-2-yl]-2′-C-methyl-beta-D-ribofuranosyl)-7H-pyrrolo[2,3-d]pyrimidine] had a melting point of 132 to 136 °C. Under `C[C@@]1(O)[C@H](O)[C@@H](COP2(=O)OCC[C@H](c3cccnc3)O2)O[C@H]1n1ccc2c(N)ncnc21` (stereo partly drawn) [Compound 16.32] stands 134 to 138 °C. Under `C[C@@]1(O)[C@H](O)[C@@H](CO[P@]2(=O)OCC[C@H](c3ccccc3)O2)O[C@H]1n1ccc2c(N)ncnc21` [Compound 16.34] stands 177 to 180 °C; under `C[C@@]1(O)[C@H](O)[C@@H](COP2(=O)OCC[C@H](c3ccccc3F)O2)O[C@H]1n1ccc2c(N)ncnc21` (stereo partly drawn) [Compound 16.39, 4-amino-7-(cis-5′-O-[4-(2-fluorophenyl)-2-oxo-1,3,2-dioxaphosphorinan-2-yl]-2′-C-methyl-beta-D-ribofuranosyl)-7H-pyrrolo[2,3-d]pyrimidine], 101 to 103 °C; under `C[C@@]1(O)[C@H](O)[C@@H](COP2(=O)OC3CCCCC3[C@@H](c3ccccc3)O2)O[C@H]1n1ccc2c(N)ncnc21` (stereo partly drawn) [Compound 16.42, 4-amino-7-(cis-5′-O-[4-phenyl-5,6-tetramethylene-2-oxo-1,3,2-dioxaphosphorinan-2-yl]-2′-C-methyl-beta-D-ribofuranosyl)-7H-pyrrolo[2,3-d]pyrimidine], 110 to 113 °C. Under `C[C@@]1(O)[C@H](O)[C@@H](COP2(=O)OCC[C@H](c3cccc(C#N)c3)O2)O[C@H]1n1ccc2c(N)ncnc21` (stereo partly drawn) [Compound 16.43, 4-amino-7-(cis-5′-O-[4-(3-cyanophenyl)-2-oxo-1,3,2-dioxaphosphorinan-2-yl]-2′-C-methyl-beta-D-ribofuranosyl)-7H-pyrrolo[2,3-d]pyrimidine] stands 157 to 160 °C. Take `C[C@@]1(O)[C@H](O)[C@@H](COP2(=O)OCC[C@@H](c3cccc(Cl)c3)O2)O[C@H]1n1ccc2c(=O)[nH]c(N)nc21` (stereo partly drawn) [Compound 17.2, 2-amino-7-(cis-5-O-[4-(S)-(3-chlorophenyl)-2-oxo-1,3,2-dioxaphosphorinan-2-yl]-2′-C methyl-beta-D-ribofuranosyl)-7H-pyrrolo[2,3-d]pyrimidin-4(3H)-one]: the melting point worked out at 175 °C. As for `C[C@@]1(O)[C@H](O)[C@@H](COP2(=O)OCC[C@@H](c3cc(F)ccc3F)O2)O[C@H]1n1ccc2c(=O)[nH]c(N)nc21` (stereo partly drawn) [Compound 17.6, 2-amino-7-(cis-5′-O-[4-(2,5-difluorophenyl)-2-oxo-1,3,2-dioxaphosphorinan-2-yl]-2′-C methyl-beta-D-ribofuranosyl)-7H-pyrrolo[2,3-d]pyrimidin-4(3H)-one], the melting point lay in the range of 170 to 173 °C. Turning to `C[C@@]1(O)[C@H](O)[C@@H](COP2(=O)OCC[C@H](c3cc(Cl)cc(Cl)c3)O2)O[C@H]1n1ccc2c(=O)[nH]c(N)nc21` (stereo partly drawn) [Compound 17.12, 2-amino-7-(cis-5′-O-[4-(3,5-dichlorophenyl)-2-oxo-1,3,2-dioxaphosphorinan-2-yl]-2′C methyl-beta-D-ribofuranosyl)-7H-pyrrolo[2,3-d]pyrimidin-4(3H)-one], the melting point fell in the range of 177 to 180 °C. Regarding `C[C@@]1(O)[C@H](O)[C@@H](CO[P@@]2(=O)OCC[C@@H](c3ccncc3)O2)O[C@H]1n1ccc2c(=O)[nH]c(N)nc21` [Compound 17.13, 2-amino-7-(cis-5-O-[4-(S)-(pyridin-4-yl)-2-oxo-1,3,2-dioxaphosphorinan-2-yl]-2-C methyl-beta-D-ribofuranosyl)-7H-pyrrolo[2,3-d]pyrimidin-4(3H)-one], the melting point was 138 to 141 °C.

Compound `C[C@@]1(O)[C@H](O)[C@@H](COP2(=O)OCC[C@@H](c3cccc(F)c3)O2)O[C@H]1n1ccc2c(=O)[nH]c(N)nc21` (stereo partly drawn) [Compound 17.14, 2-amino-7-(cis-5′-O-[4-(3-fluorophenyl)-2-oxo-1,3,2-dioxaphosphorinan-2-yl]-2-C methyl-beta-D-ribofuranosyl)-7H-pyrrolo[2,3-d]pyrimidin-4(3H)-one] came in with a melting point of 170 °C.

As for `C[C@@]1(O)[C@H](O)[C@@H](COP2(=O)OCC[C@@H](c3ccc(F)c(Br)c3)O2)O[C@H]1n1ccc2c(=O)[nH]c(N)nc21` (stereo partly drawn) [Compound 17.15, 2-amino-7-(cis-5′-O-[4-(3-bromo-4-fluoro-phenyl)-2-oxo-1,3,2-dioxaphosphorinan-2-yl]-2′-C methyl-beta-D-ribofuranosyl)-7H-pyrrolo[2,3-d]pyrimidin-4(3H)-one], the melting point is 175 to 179 °C. In turn, `C[C@@]1(O)[C@H](O)[C@@H](CO[P@]2(=O)OCC[C@H](c3ccccc3)O2)O[C@H]1n1ccc2c(=O)[nH]c(N)nc21` [Compound 17.16, 2-amino-7-(cis-5-O-[4-(R)-phenyl-2-oxo-1,3,2-dioxaphosphorinan-2-yl]-2-C methyl-beta-D-ribofuranosyl)-7H-pyrrolo[2,3-d]pyrimidin-4(3H)-one] showed a melting point of 128 to 133 °C.

In the case of `CO[C@@H]1COP(=O)(OC[C@H]2O[C@@H](n3ccc4c(=O)[nH]c(N)nc43)[C@](C)(O)[C@@H]2O)O[C@@H]1c1cccc(Cl)c1` (stereo partly drawn) [Compound 17.19], the melting point was 148 to 151 °C.

Regarding `C[C@@]1(O)[C@H](O)[C@@H](COP2(=O)OCC[C@H](c3ccccc3Br)O2)O[C@H]1n1ccc2c(=O)[nH]c(N)nc21` (stereo partly drawn) [Compound 17.21, 2-amino-7-(cis-5′-O-[4-(2-bromophenyl)-2-oxo-1,3,2-dioxaphosphorinan-2-yl]-2′-C methyl-beta-D-ribofuranosyl)-7H-pyrrolo[2,3-d]pyrimidin-4(3H)-one], the melting point worked out at 180 °C.

For `C[C@@]1(O)[C@H](O)[C@@H](COP2(=O)OCC[C@H](c3cc(C(F)(F)F)cc(C(F)(F)F)c3)O2)O[C@H]1n1ccc2c(=O)[nH]c(N)nc21` (stereo partly drawn) [Compound 17.23], the melting point lay in the range of 155 to 175 °C.

Regarding `C[C@@]1(O)[C@H](O)[C@@H](COP2(=O)OCC[C@H](c3cccc(C(F)(F)F)c3)O2)O[C@H]1n1ccc2c(=O)[nH]c(N)nc21` (stereo partly drawn) [Compound 17.24], the melting point was 145 to 165 °C. With `C[C@@]1(O)[C@H](O)[C@@H](COP2(=O)OCC[C@H](c3ccc(Cl)cc3Cl)O2)O[C@H]1n1ccc2c(=O)[nH]c(N)nc21` (stereo partly drawn) [Compound 17.25, 2-amino-7-(cis-5-O-[4-(2,4-dichlorophenyl)-2-oxo-1,3,2-dioxaphosphorinan-2-yl]-2-C methyl-beta-D-ribofuranosyl)-7H-pyrrolo[2,3-d]pyrimidin-4(3H)-one], the melting point stood at 175 °C. Under `C[C@@]1(O)[C@H](O)[C@@H](COP2(=O)OCCC(c3cccc(Cl)c3)O2)O[C@H]1n1cnc2c(N)ncnc21` (stereo partly drawn) [Compound 18, 5′-O-[4-(3-chlorophenyl)-2-oxo-1,3,2-dioxaphosphorinan-2-yl]-2′-C-methyladenosine] stands 153 °C. Under `C[C@@]1(O)[C@H](O)[C@@H](COP2(=O)OCC[C@@H](c3cccc(C#N)c3)O2)O[C@H]1n1cnc2c(N)ncnc21` (stereo partly drawn) [Compound 21.2, cis-5′-O-[4-(3-cyanophenyl)-2-oxo-1,3,2-dioxaphosphorinan-2-yl]-2′-C-beta-methyl-adenosine] stands 153 to 156 °C.
